Consider eleven compounds from US11590139B2, “Substituted aminopurine compounds, compositions thereof, and methods of treatment therewith” (Signal Pharmaceuticals, LLC, priority 2014, dated 2023).

One experiment has as its system Lox-IMVI melanoma cell line. Put plainly: Lox-IMVI anti-proliferative assay (growth inhibition, Cell Titer-Glo). The conditions noted are these: Homo sapiens; IC50 activity level in the cell-based Lox-IMVI anti-proliferative assay; read-out: Activity. Type of experiment: cell-based, human. In outline: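 Cells grown in RPMI + 10% FBS were exposed to compound at 0.5 nM to 10 μM (10-point, 3-fold dilution, duplicate, 0.2% DMSO final) for 72 h at 37 °C, 5% CO2. Viability was read by ATP luminescence at t0 and 72 h. IC50 came from a four-parameter logistic fit normalized to DMSO control.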
In the case of `CC1(C)CC[C@@H](Nc2ncc3nc(Nc4c(Cl)cc(Cl)cc4Cl)n([C@H]4CC[C@@H](C(N)=O)CC4)c3n2)C[C@H]1O` [Example 387, (1S,4s)-4-(2-((1R,3R)-3-hydroxy-4,4-dimethylcyclohexylamino)-8-(2,4,6-tnchlorophenylarnino)-9H-purin-9-yl)cyclohexanecarboxamide], the IC50 is above 1000 nM.
The same measure, in the same setting: in the case of `NC(=O)[C@H]1CC[C@@H](n2c(Nc3ccc(Cl)cc3Cl)nc3cnc(NC4COCC4O)nc32)CC1` (some centres unmarked) [Example 191, (1s,4s)-4-(8-(2,4-dichlorophenylamino)-2-(4-hydroxytetrahydrofuran-3-ylamino)-9H-purin-9-yl)cyclohexanecarboxamide] it was above 1000 nM.
Take `NC(=O)[C@H]1CC[C@@H](n2c(Nc3c(Cl)cc(Cl)cc3Cl)nc3cnc(N[C@H]4CCC[C@@H](O)C4)nc32)CC1` [Example 373, (1R,4s)-4-(2-((1S,3R)-3-hydroxycyclohexylamino)-8-(2,4,6-trichlorophenylamino)-9H-purin-9-yl)cyclohexanecarboxamide]: the IC50 was in the range of 500 to 1000 nM.
Consider `CC1(C)CC[C@@H](Nc2ncc3nc(Nc4c(F)cc(Cl)cc4F)n([C@H]4CC[C@@H](C(N)=O)CC4)c3n2)C[C@H]1O` [Example 386, (1S,4s)-4-(8-(4-chloro-2,6-difluorophenylamino)-2-((1R,3R)-3-hydroxy-4,4-dimethylcyclohexylamino)-9H-purin-9-yl)cyclohexanecarboxamide], for which the IC50 was above 1000 nM.
`NC(=O)[C@H]1CC[C@@H](n2c(Nc3c(Cl)cccc3Cl)nc3cnc(NC4COCC4O)nc32)CC1` (some centres unmarked) [Example 180, (1s,4s)-4-(8-(2,6-dichlorophenylamino)-2-(4-hydroxytetrahydrofuran-3-ylamino)-9H-purin-9-yl)cyclohexanecarboxamide]: the IC50 is above 1000 nM.

Still in this experiment, the particulars now being: Homo sapiens; Lox-IMVI anti-proliferative assay, IC50 activity level; read-out: Activity.
In the case of `C[C@]1(C(N)=O)CC[C@@H](n2c(Nc3c(F)cc(Cl)cc3Cl)nc3cnc(N[C@@H]4CCC[C@H](O)C4)nc32)CC1` [Example 564, (1S,4s)-4-(8-(2,4-dichloro-6-fluorophenylamino)-2-((1R,3S)-3-hydroxycyclohexylamino)-9H-purin-9-yl)-1-methylcyclohexanecarboxamide], the IC50 is below 250 nM.

Staying with this experiment, now noted: Homo sapiens; Lox-IMVI melanoma cell line, anti-proliferative assay; read-out: Activity (IC50 activity level).
In the case of `N#Cc1cc(F)c(Nc2nc3cnc(N[C@@H]4CCCN(Cc5ccccc5)C4)nc3n2[C@H]2CC[C@@H](C(N)=O)CC2)c(Cl)c1` [Example 777, (1S,4s)-4-(2-((R)-1-benzylpiperidin-3-ylamino)-8-(2-chloro-4-cyano-6-fluorophenylamino)-9H-purin-9-yl)cyclohexanecarboxamide], the IC50 was above 1000 nM.
As to `C[C@]1(C(N)=O)CC[C@@H](n2c(Nc3c(Cl)cc(Cl)cc3Cl)nc3cnc(N[C@@H]4CCC[C@@H](O)C4)nc32)CC1` [Example 619, (1S,4s)-4-(2-((1R,3R)-3-hydroxycyclohexylamino)-8-(2,4,6-trichlorophenylamino)-9H-purin-9-yl)-1-methylcyclohexanecarboxamide], the IC50 lay in the range of 500 to 1000 nM.
As to `C[C@]1(C(N)=O)CC[C@@H](n2c(Nc3c(F)cc(Cl)cc3Cl)nc3cnc(N[C@@H]4CC[C@@H](O)C4)nc32)CC1` [Example 637, (1S,4s)-4-(8-(2,4-dichloro-6-fluorophenylamino)-2-((1R,3R)-3-hydroxycyclopentylamino)-9H-purin-9-yl)-1-methylcyclohexanecarboxamide], the IC50 was below 250 nM.
Consider `CNC(=O)N1CCC[C@@H](Nc2ncc3nc(Nc4c(F)cc(Cl)cc4Cl)n([C@H]4CC[C@@H](C(N)=O)CC4)c3n2)C1` [Example 706, (R)-3-(9-((1s,4S)-4-carbamoylcyclohexyl)-8-(2,4-dichloro-6-fluorophenylamino)-9H-purin-2-ylamino)-N-methylpiperidine-1-carboxamide], for which the IC50 is above 1000 nM.
For `NC(=O)[C@H]1CC[C@@H](n2c(Nc3c(F)cc(Cl)cc3F)nc3cnc(NC[C@@H]4CCCC[C@@H]4O)nc32)CC1` [Example 657, (1R,4s)-4-(8-(4-chloro-2,6-difluorophenylamino)-2-(((1S,2S)-2-hydroxycyclohexyl)methylamino)-9H-purin-9-yl)cyclohexanecarboxamide], the IC50 is above 1000 nM.
